# Target: T1, VEGFR/KDR (Homo sapiens, UniProt P35968)
# T1 construct: made in house; host or cells: Sf9 cells (Spodoptera frugiperda), baculovirus
# Assay: VEGFR/KDR kinase inhibition, DELFIA assay
# Type: biochemical
# Conditions: ATP 0.6 uM (2x Km), enzyme 5 nM
# Outline: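 Enzyme (5 nM) pre-incubated 4 min on ice with inhibitor and Mg-ATP (0.6 uM, 2× Km), then reacted 10-30 min at 30° C on immobilized poly(Glu4,Tyr). EDTA-quenched phosphotyrosine detected with Europium-labeled antibody by time-resolved fluorescence; IC50 from concentration series.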
# T1 sequence (P35968 806-1356): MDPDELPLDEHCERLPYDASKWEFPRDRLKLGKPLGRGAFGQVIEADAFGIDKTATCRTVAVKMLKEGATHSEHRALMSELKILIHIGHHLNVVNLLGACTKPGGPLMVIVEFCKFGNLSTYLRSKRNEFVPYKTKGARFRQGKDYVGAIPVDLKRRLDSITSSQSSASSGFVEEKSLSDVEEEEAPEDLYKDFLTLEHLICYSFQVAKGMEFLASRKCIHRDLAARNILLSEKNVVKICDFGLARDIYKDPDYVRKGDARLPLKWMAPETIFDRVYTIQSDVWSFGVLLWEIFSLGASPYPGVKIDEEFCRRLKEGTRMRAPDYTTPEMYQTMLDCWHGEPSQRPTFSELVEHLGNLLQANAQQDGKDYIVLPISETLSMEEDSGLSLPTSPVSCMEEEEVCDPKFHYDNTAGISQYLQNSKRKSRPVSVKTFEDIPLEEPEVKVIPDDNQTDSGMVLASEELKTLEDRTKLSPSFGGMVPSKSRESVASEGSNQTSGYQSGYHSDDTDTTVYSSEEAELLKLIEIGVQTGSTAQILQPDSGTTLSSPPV
row,Molecule,IC50
1,"O=C(Nc1ccc(Oc2ccnc3cc(-c4ccc(CN5CCN(CCO)CC5)cn4)sc23)c(F)c1)NC1CC1 [Compound 55, 1-cyclopropyl-3-(3-fluoro-4-(2-(5-((4-(2-hydroxyethyl)piperazin-l-yl)methyl)pyridin-2-yl)thieno[3,2-b]-pyridin-7-yloxy)phenyl)urea]",< 50 nM
2,"COCCN(Cc1ccc(-c2cc3nccc(Oc4ccc(NC(=O)NC5CC5)cc4F)c3s2)cc1)C(=O)NC1CCCC1 [Compound 194, 1-(4-(7-(4-cyclopropylaminocarbonylamino-2-fluorophenoxy)thieno-[3,2-b]pyridin-2-yl)benzyl)-3-cyclopentyl-1-(2-methoxyethyl)urea]",< 50 nM
3,"CC1(C)CN(Cc2ccc(-c3cc4nccc(Oc5ccc(NC(=O)NC6CC6)cc5F)c4s3)nc2)CCN1 [Compound 496, 1-cyclopropyl-3-(4-(2-(5-((3,3-dimethylpiperazin-1-yl)methyl)pyridin-2-yl)thieno[3,2-b]pyridin-7-yloxy)-3-fluorophenyl)urea]",< 50 nM
4,Cn1c(C(=O)NCCCN2CCOCC2)cnc1-c1cc2nccc(Oc3ccc(NC(=O)NC4CC4)cc3F)c2s1 [Compound 224],< 50 nM
5,"COC(=O)C1CCN(Cc2ccc(-c3cc4nccc(Oc5ccc(NC(=O)NC6CC6)cc5F)c4s3)nc2)C1 (stereo not shown) [Compound 478, methyl 1-((6-(7-(4-(3-cyclopropylureido)-2-fluorophenoxy)thieno[3,2-b]pyridin-2-yl)pyridin-3-yl)methyl)pyrrolidine-3-carboxylate]",< 50 nM
6,"CCCCOC(=O)C1CN(C(=O)c2ccc(-c3cc4nccc(Oc5ccc(NC(=O)NC6CC6)cc5F)c4s3)nc2)CCO1 (stereo not shown) [Compound 238, butyl 4-(6-(7-(4-(3-cyclopropylureido)-2-fluorophenoxy)thieno[3,2-b]pyridin-2-yl)nicotinoyl)morpholine-2-carboxylate]",< 50 nM
7,"O=C(Nc1ccc(Oc2ccnc3cc(C4=CCNCC4)sc23)c(F)c1)NC1CC1 [Compound 271-A, 1-Cyclopropyl-3-(3-fluoro-4-(2-(1,2,3,6-tetrahydropyridin-4-yl)thieno[3,2-b]pyridin-7-yloxy)phenyl)urea]",50 to 100 nM
8,"CC(C)NC(=O)Nc1ccc(Oc2ccnc3cc(-c4ccc(CN5CCCC5=O)cc4)sc23)c(F)c1 [Compound 205, 1-(3-fluoro-4-(2-(4-((2-oxopyrrolidin-1-yl)methyl)phenyl)thieno[3,2-b]pyridin-7-yloxy)phenyl)-3-isopropylurea]",50 to 100 nM

# Results, then the molecule that gave them:
row,IC50,Molecule
1,< 50 nM,"COCCN(Cc1ccc(-c2cc3nccc(Oc4ccc(NC(=O)NC5CC5)cc4F)c3s2)nc1)C(=O)[C@H](C)O [Compound 89, (S)-N-((6-(7-(4-(3-cyclopropylureido)-2-fluorophenoxy)thieno[3,2-b]pyridin-2-yl)pyridin-3-yl)methyl)-2-hydroxy-N-(2-methoxyethyl)propanamide]"
2,< 50 nM,"CN1CCC(CN2CCN(C(=O)c3ccc(-c4cc5nccc(Oc6ccc(NC(=O)NC7CC7)cc6F)c5s4)nc3)CC2)CC1 [Compound 232, 1-cyclopropyl-3-(3-fluoro-4-(2-(5-(4-((1-methylpiperidin-4-yl)methyl)piperazine-1-carbonyl)pyridin-2-yl)thieno[3,2-b]pyridin-7-yloxyl)phenyl)urea]"
3,< 50 nM,"CC(=O)N(CCS(C)(=O)=O)Cc1ccc(-c2cc3nccc(Oc4ccc(NC(=O)NC5CC5)cc4F)c3s2)nc1 [Compound 43, N-((6-(7-(4-(3-cyclopropylureido)-2-fluorophenoxy)thieno[3,2-b]pyridin-2-yi)pyridin-3-yl)methyl)-N-(2-(methylsulfonyl)ethyl)acetamide]"
4,< 50 nM,"COCCN(Cc1cnc(-c2cc3nccc(Oc4ccc(NC(=O)Nc5ccc(F)cc5F)cc4F)c3s2)n1C)C(C)=O [Compound 117, N-((2-(7-(4-(3-(2,4-difluorophenyl)ureido)-2-fluorophenoxy)thieno[3,2-b]pyridin-2-yl)-1-methyl-1H-imidazol-5-yl)methyl)-N-(2-methoxyethyl)acetamide]"
5,≥ 250 nM,"CCOC(Nc1ccc(Oc2ccnc3cc(-c4ccc(CNCCOC)cn4)sc23)c(F)c1)C(F)(F)F (stereo not shown) [Compound 14, N-(1-ethoxy-2,2,2-trifluoroethyl)-3-fluoro-4-(2-(5-((2-methoxyethylamino)-methyl)pyridin-2-yl)thieno[3,2-b]pyridin-7-yloxy)aniline]"
6,< 50 nM,CC(C)(CO)C(=O)N1CCN(Cc2ccc(-c3cc4nccc(Oc5ccc(NC(=O)NC6CC6)cc5F)c4s3)nc2)CC1 [Compound 537]
7,< 50 nM,CCNC(=O)N1CCN(Cc2ccc(-c3cc4nccc(Oc5ccc(NC(=O)NC6CC6)cc5F)c4s3)nc2)CC1 [Compound 551]
8,< 50 nM,"CCNC(=O)N1CC(N(CC(=O)O)Cc2ccc(-c3cc4nccc(Oc5ccc(NC(=O)NC6CC6)cc5F)c4s3)nc2)C1 [Compound 434, 2-(((6-(7-(4-(3-Cyclopropylureido)-2-fluorophenoxy)thieno[3,2-b]pyridin-2-yl)pyridin-3-yl)methyl)(1-(ethylcarbamoyl)azetidin-3-yl)-amino)acetic acid]"
9,< 50 nM,CC(O)CN1CCN(Cc2ccc(-c3cc4nccc(Oc5ccc(NC(=O)NC6CC6)cc5F)c4s3)nc2)CC1 (stereo not shown) [Compound 562]
10,< 50 nM,"CN(C)CCNC(=O)C1CN(Cc2ccc(-c3cc4nccc(Oc5ccc(NC(=O)NC6CC6)cc5F)c4s3)nc2)C1 [Compound 490, 1-((6-(7-(4-(3-cyclopropylureido)-2-fluorophenoxy)thieno[3,2-b]pyridin-2-yl)pyridin-3-yl)methyl)-N-(2-(dimethylamino)ethyl)azetidine-3-carboxamide]"
11,< 50 nM,"CCOC(=O)CC(N1CCN(Cc2ccc(-c3cc4nccc(Oc5ccc(NC(=O)NC6CC6)cc5F)c4s3)nc2)CC1)C(F)(F)F (stereo not shown) [Compound 509, ethyl 3-(4-((6-(7-(4-(3-cyclopropylureido)-2-fluorophenoxy)thieno[3,2-b]pyridin-2-yl)pyridin-3-yl)methyl)piperazin-1-yl)-4,4,4-trifluorobutanoate]"
12,< 50 nM,CCN(C(=O)OC(C)(C)C)[C@H]1CCN(C(=O)c2cc3nccc(Oc4ccc(NC(=O)NC5CC5)cc4F)c3s2)C1 [Compound 456]
13,< 50 nM,"CC(=O)N[C@H]1CCN(Cc2ccc(-c3cc4nccc(Oc5ccc(NC(=O)NC6CC6)cc5F)c4s3)nc2)C1=O [Compound 44, (S)-N-(l-((6-(7-(4-(3-cyclopropylureido)-2-fluorophenoxy)thieno[3,2-b]pyridin-2-yl)pyridin-3-yl)methyl)-2-oxopyrrolidin-3-yl)acetamide]"
14,< 50 nM,O=C(Nc1ccc(Oc2ccnc3cc(C(=O)N4CC(O)C4)sc23)c(F)c1)NC1CC1 [Compound 462]
15,50 to 100 nM,"O=C(Nc1ccc(Oc2ccnc3cc(C(=O)N4CCC(C(=O)O)CC4)sc23)c(F)c1)NC1CC1 [Compound 465, 1-(7-(4-(3-cyclopropylureido)-2-fluorophenoxy)thieno[3,2-b]pyridine-2-carbonyl)piperidine-4-carboxylic acid]"
16,< 50 nM,"CC(C)[C@H](N)C(=O)OCCN1CCN(Cc2ccc(-c3cc4nccc(Oc5ccc(NC(=O)NC6CC6)cc5F)c4s3)nc2)CC1 [Compound 79, (S)-2-(4-((6-(7-(4-(3-cyclopropylureido)-2-fluorophenoxy)thieno[3,2-b]pyridin-2-yl)pyridin-3-yl)methyl)piperazin-1-yl)ethyl 2-amino-3-methylbutanoate]"

# Tested on: CNV progression
# Assay: In vivo choroidal neovascularization (CNV) model, laser-induced, intravitreal injection
# Design: species or system Male Brown-Norway rats
# Conditions: 240 h; rat, 3 nmol/eye injected on Day 3, CNV area on Day 10, vs vehicle
# From the text: This test measures the capacity of compounds to inhibit CNV progression. CNV is the main cause of severe vision loss in patients suffering from age-related macular degeneration (AMD).
# Male Brown-Norway rats (Japan Clea Co., Ltd.) were used in these studies.
# Rats were anesthetized by intraperitoneal injection of pentobarbital, and the right pupil was dilated with 0.5% tropicamide and 0.5% phenylephrine hydrochloride. The right eye received 6 laser burns between retinal vessels using a slit lamp delivery system of Green laser Photocoagulator (Nidex Inc., Japan), and microscope slide glass with Healon™ (AMO Inc) used as a contact lens. The laser power was 100 or 200 mW for 0.1 second and spot diameter was 100 μm. At the time of laser burn, bubble production was observed, which is an indication of rupture of Bruch's membrane which is important for CNV generation.
# Rats were divided into the groups based on their body weight using SAS software (SAS institute Japan, R8.1) after laser irradiation (Day 0). After animals were anesthetized, and the right pupil dilated (as above mentioned), the right eye of the animal received the compound or vehicle by an injection (10 μL/eye) at doses of 10 or 3 nmol/eye on Day 3. The compounds were dissolved or suspended in CBS, PBS, or other adequate vehicles before injection.
# On Day 10, the animals were anesthetized with ether, and high molecular weight fluorescein isothiocyanate (FITC)-dextran (SIGMA, 2×10^6 MW) was injected via a tail vein (20 mg/rat). About 30 min after FITC-dextran injection, animals were euthanized by ether or carbon dioxide, and the eyes were removed and fixed with 10% formaline neutral buffer solution. After over 1 hour of fixation, RPE-choroid-sclera flat mounts were obtained by removing cornea, lens and retina from the eyeballs. The flat mounts were mounted in 50% glycerol on a microscope slide, and the portion burned by laser was photographed using a fluorescence microscope (Nikon Corporation, excitation filter:465-495 nm, absorption filter:515-555 nm). The CNV area was obtained by measurement of hyper-fluorescence area observed on the photograph using Scion image.
# The average CNV area of 6 burns was used as an individual value of CNV area, and the average CNV area of compound treated group was compared with that of the vehicle-treated group.
row,Molecule,inhibition in vivo at 3 nmol/eye
1,"CN1CCC(CN2CCN(C(=O)c3ccc(-c4cc5nccc(Oc6ccc(NC(=O)NC7CC7)cc6F)c5s4)nc3)CC2)CC1 [Compound 232, 1-cyclopropyl-3-(3-fluoro-4-(2-(5-(4-((1-methylpiperidin-4-yl)methyl)piperazine-1-carbonyl)pyridin-2-yl)thieno[3,2-b]pyridin-7-yloxyl)phenyl)urea]",40 to 60%

# Same assay, conditions: 240 h; rat, 10 nmol/eye injected on Day 3, CNV area on Day 10, vs vehicle
row,Molecule,inhibition in vivo at 10 nmol/eye
1,"COCCN(Cc1ccc(-c2cc3nccc(Oc4ccc(NC(=O)NC5CC5)cc4F)c3s2)nc1)C(=O)[C@H](C)O [Compound 89, (S)-N-((6-(7-(4-(3-cyclopropylureido)-2-fluorophenoxy)thieno[3,2-b]pyridin-2-yl)pyridin-3-yl)methyl)-2-hydroxy-N-(2-methoxyethyl)propanamide]",≥ 60%
2,"CC(=O)N(CCS(C)(=O)=O)Cc1ccc(-c2cc3nccc(Oc4ccc(NC(=O)NC5CC5)cc4F)c3s2)nc1 [Compound 43, N-((6-(7-(4-(3-cyclopropylureido)-2-fluorophenoxy)thieno[3,2-b]pyridin-2-yi)pyridin-3-yl)methyl)-N-(2-(methylsulfonyl)ethyl)acetamide]",40 to 60%
3,"O=C(Nc1ccc(Oc2ccnc3cc(-c4ccc(CN5CCN(CCO)CC5)cn4)sc23)c(F)c1)NC1CC1 [Compound 55, 1-cyclopropyl-3-(3-fluoro-4-(2-(5-((4-(2-hydroxyethyl)piperazin-l-yl)methyl)pyridin-2-yl)thieno[3,2-b]-pyridin-7-yloxy)phenyl)urea]",40 to 60%

# Same assay, conditions: rat, 10 nmol/eye injected on Day 3, CNV area on Day 10, vs vehicle
row,Molecule,Inhibition of CNV progression
1,"2-cyclopropyl-N-(3-fluoro-4-(2-(5-((N- (2-methoxyethyl)-acetamido)methyl)pyridin-2- yl)thieno[3,2-b]-pyridin-7-yloxy)phenyl)-acetamide [Compound 42]",A (greater than or equal to 60% inhibition)
2,"(S)-1-(4-(2-(5-((3-amino-2-oxopyrrolidin-1-yl)methyl)pyridin-2-yl)thieno[3,2-b]pyridin-7-yloxy)-3-fluorophenyl)-3-cyclopropylurea [Compound 108]",A (greater than or equal to 60% inhibition)
3,"N-((6-(7-(4-(3-cyclopropylureido)-2-fluorophenoxy)thieno[3,2-b]pyridin-2-yl)pyridin-3-yl)methyl)-N-(2-methoxyethyl)formimidamide [Compound 7]",B (≧40% to <60% inhibition)
